Counter-ions that a name gives are not always drawn.
Experiments:
ZAP-70 = molecular target: T1, ZAP-70 (Homo sapiens, UniProt P43403); experiment: ZAP-70 kinobeads assay; format: binding; conditions: competition with immobilized aminopyrido-pyrimidine ligand 24 in cell lysate; ZAP-70 detected by dot blot
T1 construct: endogenous in cells; host or cells: cell lysate
T1 sequence (P43403 1-619): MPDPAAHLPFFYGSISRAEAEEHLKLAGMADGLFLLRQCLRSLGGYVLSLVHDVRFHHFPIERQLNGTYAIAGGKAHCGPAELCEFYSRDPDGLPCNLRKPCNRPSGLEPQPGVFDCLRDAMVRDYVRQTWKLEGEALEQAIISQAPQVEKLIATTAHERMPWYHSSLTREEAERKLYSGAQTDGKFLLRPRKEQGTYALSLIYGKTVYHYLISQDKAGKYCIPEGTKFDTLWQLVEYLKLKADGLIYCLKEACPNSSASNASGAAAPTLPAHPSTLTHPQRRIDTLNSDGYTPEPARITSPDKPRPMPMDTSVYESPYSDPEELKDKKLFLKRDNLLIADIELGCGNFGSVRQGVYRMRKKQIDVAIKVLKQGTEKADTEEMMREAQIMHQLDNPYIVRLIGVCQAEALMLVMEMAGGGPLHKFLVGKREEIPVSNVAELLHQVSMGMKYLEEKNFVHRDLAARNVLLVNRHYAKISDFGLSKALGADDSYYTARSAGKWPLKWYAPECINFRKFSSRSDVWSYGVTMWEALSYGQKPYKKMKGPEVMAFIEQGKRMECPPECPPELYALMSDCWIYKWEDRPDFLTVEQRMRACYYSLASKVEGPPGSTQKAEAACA
In short: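 Cell lysate aliquots incubated with test compounds at various concentrations plus affinity beads carrying immobilized aminopyrido-pyrimidine ligand 24. Bead-captured proteins eluted; ZAP-70 quantified by specific antibody dot blot with infrared detection.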

Jurkat cells = experiment: Calcium release assay (Fluo-4 flow cytometry after anti-CD3 stimulation); format: cell-based; conditions: Homo sapiens, Jurkat cell line J77, anti-CD3 activation, read-out: IC50 (Calcium ion release in cells)
In short: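 Jurkat J77 cells loaded with Fluo-4/Pluronic F-127 for 30 min at 37 °C, then incubated with compound at room temperature in the dark in PBS–CaCl2 with 10% FCS. Stimulation with anti-CD3 (0.2 μg/ml final) plus GAM (0.75 μg/ml final) at 37 °C, then flow-cytometric Ca2+ fluorescence acquired for 200 s.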

| Compound | IC50 (ZAP-70) [nM] | IC50 (Jurkat cells) [nM] |
| --- | --- | --- |
| COc1cc(Nc2ncc(Cl)c(Nc3ccccc3NS(C)(=O)=O)n2)cc(OC)c1OC [Example 138, N-(2-(5-chloro-2-(3,4,5-trimethoxyphenylamino)pyrimidin-4-ylamino)phenyl)methanesulfonamide hydrochloride] | < 100 | < 100 |
| CN1C(=O)COc2cc(Nc3ncc(F)c(Nc4ccccc4NS(C)(=O)=O)n3)ccc21 [Example 25, N-(2-(5-fluoro-2-(4-methyl-3-oxo-3,4-dihydro-2H-benzo[b][1,4]oxazin-7-ylamino)pyrimidin-4-ylamino)phenyl)methanesulfonamide] | 100 to 1000 | 100 to 1000 |
| COc1ccc(Nc2nc(Nc3cc(OC)c(OC)c(OC)c3)ncc2Cl)c(NS(C)(=O)=O)c1 [Example 152, N-(2-(5-chloro-2-(3,4,5-trimethoxyphenylamino)pyrimidin-4-ylamino)-5-methoxyphenyl)methanesulfonamide] | < 100 | < 100 |
| CS(=O)(=O)Nc1ccccc1Nc1nc(Nc2cccc(OCCCN3CCCCC3)c2)ncc1Cl [Example 134] | < 100 | 100 to 1000 |
| COc1cc(Nc2ncc(F)c(Nc3cccc(C)c3NS(C)(=O)=O)n2)cc(OC)c1OCCN1CCCCC1 [Example 113, N-(2-(2-(3,5-dimethoxy-4-(2-(piperidin-1-yl)ethoxy)phenylamino)-5-fluoropyrimidin-4-ylamino)-6-methylphenyl)methanesulfonamide] | < 100 | 100 to 1000 |
| CCNC(=O)COc1cccc(Nc2ncc(Cl)c(Nc3ccccc3NS(C)(=O)=O)n2)c1 [Example 151, 2-(3-(5-chloro-4-(2-(methylsulfonamido)phenylamino)pyrimidin-2-ylamino)phenoxy)-N-ethylacetamide 2,2,2-trifluoroacetate] | < 100 | < 100 |
| COc1cccc(Nc2ncc(F)c(Nc3ccccc3NS(C)(=O)=O)n2)c1 [Example 38, N-(2-(5-fluoro-2-(3-methoxyphenylamino)pyrimidin-4-ylamino)phenyl)methanesulfonamide] | 1000 to 10000 | 100 to 1000 |
| COc1cc(Nc2ncc(F)c(Nc3ccccc3NS(C)(=O)=O)n2)cc(OC)c1 [Example 37, N-(2-(2-(3,5-dimethoxyphenylamino)-5-fluoropyrimidin-4-ylamino)phenyl)methanesulfonamide] | 100 to 1000 | 100 to 1000 |
| CCN(CC)CCOc1cccc(Nc2ncc(Cl)c(Nc3ccccc3NS(C)(=O)=O)n2)c1 [Example 126, N-(2-(5-chloro-2-(3-(2-(diethylamino)ethoxy)phenylamino)pyrimidin-4-ylamino)phenyl)methanesulfonamide] | < 100 | < 100 |
| COc1cc(Nc2ncc(Cl)c(Nc3ccccc3NS(C)(=O)=O)n2)ccc1OCCN1CCCC1 [Example 141, N-(2-(5-chloro-2-(3-methoxy-4-(2-(pyrrolidin-1-yl)ethoxy)phenylamino)pyrimidin-4-ylamino)phenyl)methanesulfonamide] | < 100 | < 100 |
| CS(=O)(=O)Nc1ccccc1Nc1nc(Nc2ccc(F)cc2)ncc1F [Example 2, N-(2-(5-fluoro-2-(4-fluorophenylamino)pyrimidin-4-ylamino)phenyl)methanesulfonamide] | 1000 to 10000 | 100 to 1000 |
| CS(=O)(=O)Nc1ccccc1Nc1nc(Nc2cccc(O)c2)ncc1F [Example 76, N-(2-(5-fluoro-2-(3-hydroxyphenylamino)pyrimidin-4-ylamino)phenyl)methanesulfonamide] | 100 to 1000 | 100 to 1000 |
| COc1cc(Nc2ncc(Cl)c(Nc3ccccc3NS(C)(=O)=O)n2)cc(OCC(C)C)c1OC [Example 137, N-(2-(5-chloro-2-(3-isobutoxy-4,5-dimethoxyphenylamino)pyrimidin-4-ylamino)phenyl)methanesulfonamide] | < 100 | 100 to 1000 |
| COc1cc(Nc2ncc(F)c(Nc3cccc(C)c3NS(C)(=O)=O)n2)cc(OC(C)C)c1OC [Example 118, N-(2-(5-fluoro-2-(3-isopropoxy-4,5-dimethoxyphenylamino)pyrimidin-4-ylamino)-6-methylphenyl)methanesulfonamide] | < 100 | 100 to 1000 |

Now from value to molecule:

| IC50 (ZAP-70) [nM] | IC50 (Jurkat cells) [nM] | Compound |
| --- | --- | --- |
| 100 to 1000 | 100 to 1000 | COc1cc(Nc2ncc(F)c(Nc3cccc(F)c3NS(C)(=O)=O)n2)cc(OC)c1OC [Example 183, N-(2-fluoro-6-(5-fluoro-2-(3,4,5-trimethoxyphenylamino)pyrimidin-4-ylamino)phenyl)methanesulfonamide] |
| 100 to 1000 | 100 to 1000 | COc1cc(Nc2ncc(F)c(Nc3cccc(Cl)c3NS(C)(=O)=O)n2)cc(OC)c1OC [Example 184, N-(2-chloro-6-(5-fluoro-2-(3,4,5-trimethoxyphenylamino)pyrimidin-4-ylamino)phenyl)methanesulfonamide] |
| 100 to 1000 | 100 to 1000 | COc1cc(Nc2ncc(F)c(Nc3ccc(F)c(C)c3NS(C)(=O)=O)n2)cc(OC)c1OC [Example 162, N-(3-fluoro-6-(5-fluoro-2-(3,4,5-trimethoxyphenylamino)pyrimidin-4-ylamino)-2-methylphenyl)methanesulfonamide] |
| < 100 | < 100 | COc1ccc(Nc2nc(Nc3cc(OC)c(OC)c(OC)c3)ncc2F)c(NS(C)(=O)=O)c1 [Example 173, N-(2-(5-fluoro-2-(3,4,5-trimethoxyphenylamino)pyrimidin-4-ylamino)-5-methoxyphenyl)methanesulfonamide] |
| 100 to 1000 | 100 to 1000 | COc1cc(Nc2ncc(F)c(Nc3ccc(C)cc3NS(C)(=O)=O)n2)cc(OC)c1OC [Example 170, N-(2-(5-Fluoro-2-(3,4,5-trimethoxyphenylamino)pyrimidin-4-ylamino)-5-methylphenyl)methanesulfonamide] |
| < 100 | < 100 | COc1cc(Nc2ncc(F)c(Nc3ccc4c(c3NS(C)(=O)=O)OCCO4)n2)cc(OC)c1OC [Example 167, N-(6-(5-fluoro-2-(3,4,5-trimethoxyphenylamino)pyrimidin-4-ylamino)-2,3-dihydrobenzo[b][1,4]dioxin-5-yl)methanesulfonamide] |
| 100 to 1000 | 100 to 1000 | COc1cc(Nc2ncc(F)c(Nc3ccc(N4CCOCC4)cc3NS(C)(=O)=O)n2)cc(OC)c1OC [Example 171, N-(2-(5-fluoro-2-(3,4,5-trimethoxyphenylamino)pyrimidin-4-ylamino)-5-morpholinophenyl)methanesulfonamide] |
| 100 to 1000 | < 100 | CCN(c1ccccc1Nc1nc(Nc2cc(OC)c(OC)c(OC)c2)ncc1F)S(C)(=O)=O [Example 154, N-ethyl-N-(2-(5-fluoro-2-(3,4,5-trimethoxyphenylamino)pyrimidin-4-ylamino)phenyl)methanesulfonamide] |
| 100 to 1000 | 100 to 1000 | CS(=O)(=O)Nc1ccccc1Nc1nc(Nc2ccc(N3CCCCC3)cc2)ncc1Br [Example 215, N-(2-(5-bromo-2-(4-(piperidin-1-yl)phenylamino)pyrimidin-4-ylamino)phenyl)methanesulfonamide] |
| < 100 | < 100 | COc1cc(Nc2ncc(F)c(Nc3ccc(OC(C)C)cc3NS(C)(=O)=O)n2)cc(OC)c1OC [Example 182, N-(2-(5-fluoro-2-(3,4,5-trimethoxyphenylamino)pyrimidin-4-ylamino)-5-isopropoxyphenyl)methanesulfonamide] |
